Data published in BigSolDB 2.1.

CCC[C@@H]1C[C@@H](C(=O)N[C@@H]([C@H]2O[C@H](SC)[C@H](O)[C@H]3OC(C)(C)O[C@H]32)[C@H](C)Cl)N(C)C1
solubility (mole fraction)
Conditions | 273.15 K | 278.15 K | 283.15 K | 288.15 K | 293.15 K | 298.15 K | 303.15 K | 308.15 K | 313.15 K
in acetone | 0.0112 | 0.0132 | 0.0164 | 0.0195 | 0.024 | 0.0283 | 0.0348 | 0.0425 | 0.0502
in acetonitrile | 0.0032 | 0.004 | 0.005 | 0.0063 | 0.0078 | 0.0098 | 0.0123 | 0.0153 | 0.0189
in ethanol | 0.0146 | 0.0179 | 0.0208 | 0.0243 | 0.0292 | 0.0352 | 0.0423 | 0.0506 | 0.0594
in ethyl acetate | 0.0075 | 0.0093 | 0.0114 | 0.0143 | 0.0175 | 0.0215 | 0.026 | 0.0319 | 0.0388
in isobutanol | 0.0139 | 0.0175 | 0.022 | 0.0274 | 0.0334 | 0.0409 | 0.0491 | 0.0584 | 0.0696
in isopropanol | 0.0102 | 0.0124 | 0.0149 | 0.018 | 0.022 | 0.0266 | 0.0324 | 0.0393 | 0.0468
in methanol | 0.0212 | 0.0255 | 0.0306 | 0.0351 | 0.0408 | 0.0481 | 0.0554 | 0.0651 | 0.0746
in methyl acetate | 0.0087 | 0.0102 | 0.0132 | 0.0162 | 0.0198 | 0.024 | 0.0293 | 0.0355 | 0.042
in n-butanol | 0.0166 | 0.0213 | 0.0272 | 0.0325 | 0.0391 | 0.0478 | 0.0571 | 0.0672 | 0.0794
in n-propanol | 0.015 | 0.0189 | 0.0238 | 0.0294 | 0.0363 | 0.0428 | 0.0529 | 0.0637 | 0.0751
in n-propyl acetate | 0.0065 | 0.008 | 0.0106 | 0.0124 | 0.0152 | 0.0183 | 0.0223 | 0.0283 | 0.0347
in sec-butanol | 0.0229 | 0.0282 | 0.0344 | 0.0413 | 0.0507 | 0.0597 | 0.0709 | 0.0813 | 0.0947
